Measurements taken from US20240207422A1, “NERVE TARGETING PEPTIDE CONJUGATES AND METHODS OF USE” (Alume Biosciences, Inc., priority 2022, published 2024).

These substances were tested on human nerve extract (assay: Phage display selection on plates coated with human nerve extract (Plated Nerve2), NextGen sequence counts). Details: unique sequence count (relative enrichment); Plated Nerve2 only.
Type: binding
Protocol: Several m13 phage libraries were constructed expressing randomized variants of a parent peptide (QVPWEEPYYVVKKS-SGGL; SEQ ID NO: 576). In particular, the first 14 amino acids of the parent peptide were randomized using degenerate oligonucleotide synthesis to obtain a diverse set of peptides with a mutation rate of about 50% per residue.
To accomplish this, synthesis was carried out by the XXK codon design approach, where X is any base and K is G or T. To bias synthesis towards the parent sequence, synthesis was carried out at each X position with a mixture of about 70%-85% of the parent nucleotide and 15-30% of the remaining 3 nucleotides. The resulting molecules were inserted into fADL-1e (Antibody Design Laboratories), which is a type 3 phage display vector having a cloning site on the N-terminal side of the full-length gene III protein. The fusion proteins are directed to the periplasm by the PelB leader peptide, which is inserted in the vector […].
Collectively, the phage display libraries used in the screens comprised about 600 million peptides, with sequencing analysis confirming a mutation rate of about 50% per residue.
Phage libraries were independently processed, as follows, with five biological samples: two independent samples of excised human nerve tissue, one sample of a human nerve extract, and two independent samples of human muscle tissue, as follows:
Human Nerve Extracts: Phage libraries were incubated for up to 24 hours at 4° C. in 96 well plates that had been coated with a human nerve extract. Plates were then washed with PBS and phage were eluted using 0.2M glycine pH 2.0. Phage supernatants where then neutralized with Tris pH 9.0 prior to plating on TG1 bacteria and LB agar plates. Colonies were counted to determine titer followed by DNA preparation of pools of phage and NextGen sequencing. After rounds of selection, phage were pooled and amplified for iterative selection. Phage that eluted by 0.2M glycine pH 2.0 (the nerve binders) at each round were sequenced. NextGen sequencing of pools after 2, 3 and 4 rounds of selection were used to isolate candidate sequences that were further analyzed using bioinformatics.
NextGen sequencing of pools after 2, 3 and 4 rounds of selection were used to isolate candidate sequences from each of the five samples. These five data sets were then analyzed as described in the next section.
Peptide and vector sequences were translated starting at the first start codon in the nucleotide sequence. […] Trimmed peptides with identical sequences were combined and quantified according to their frequency (count).
Following processing, an R script was written to merge the unique peptide sequences (with counts 6 or greater) from the 5 different data sets to analyze the overlap between nerve and muscle binding activity.
For the single Nerve2, Nerve3, and Plated Nerve2 (pn2) subsets, the number of counts for each group was set at a threshold giving rise to at least 100 peptides. […] As highlighted in yellow in FIG. 1B, the representative group also included 6 unique peptides overlapping between nerve2 and nerve3, 200 unique peptides overlapping between nerve2 and plated nerve2 (at least 60 counts), 4 unique peptides overlapping between nerve3 and plated nerve2. Finally, as highlighted in green in FIG. 1B, the representative group also included […] common to the nerve2, nerve3, and plated nerve2 sets.

Substance | Count
450 (QFAWSQSYAYSSTT) [compound 450] | 107
451 (QGQWDKPYDAVQNS) [compound 451] | 88
452 (QIPGDAQYRLVKRS) [compound 452] | 80
453 (QIPWTQPQYDVTPP) [compound 453] | 79
454 (HVELESSYYFVNNS) [compound 454] | 78
455 (QFPLAEPYYHLTES) [compound 455] | 77
456 (HFDWEEPYYDASKA) [compound 456] | 73
457 (SYEWEDPYYDLKYS) [compound 457] | 73
458 (NVTGAEYYYRMNNY) [compound 458] | 67
459 (HVSCEVPCYGALAS) [compound 459] | 66
460 (HDASEGAYYVERNS) [compound 460] | 65
461 (QFGWEEPYYVLHTV) [compound 461] | 65
462 (HLSREGTYYAVKQP) [compound 462] | 64
463 (QLPLYDPYYTVRTS) [compound 463] | 63
464 (ELPYEEPGTFVEKA) [compound 464] | 62
465 (QFPWEEPYYVFTNS) [compound 465] | 62
466 (QIPGGERSYVLENS) [compound 466] | 62
467 (QITSDKPYYVVKNS) [compound 467] | 60
468 (YDPSGEPYYRVNNH) [compound 468] | 59
469 (QVPRPASSYIGKTS) [compound 469] | 58
470 (QIPLEGPTYVTNPS) [compound 470] | 57
471 (AIPSGAPYYKVNKY) [compound 471] | 56
472 (EFRSEQPYYFVNKY) [compound 472] | 55

Substance | Count
473 (QIRWDETYYDIQKT) [compound 473] | 55
474 (QLALEQQSYDAKMS) [compound 474] | 55
475 (ALPWEHPWCVSKNC) [compound 475] | 54
476 (HVPVLEPYDLVKKS) [compound 476] | 54
477 (QIRSTEPYYVFKKT) [compound 477] | 54
478 (QSPGTNPQNVLIKS) [compound 478] | 54
479 (QITSVDPSSLAYRS) [compound 479] | 53
480 (QMPSGAPYDATLNS) [compound 480] | 53
481 (QNPWDEPSYVVKNV) [compound 481] | 53
482 (QSPFDETAYGLTHS) [compound 482] | 53
483 (QVLFAKSYYSVKDS) [compound 483] | 53
484 (RFPADEEHYVGKLS) [compound 484] | 53
485 (YVPYEEQKYVVTKS) [compound 485] | 53
486 (HSQGQTTEYVGKQS) [compound 486] | 52
487 (DFQSEETRNLAKMP) [compound 487] | 51
488 (DVPWPAPYYAVSKY) [compound 488] | 51
489 (QFPGEESHYVVRNS) [compound 489] | 51
490 (QFQWETPSHVINDS) [compound 490] | 51
491 (QTPRQTLYYSVKAY) [compound 491] | 51
492 (HVAYQEPFVYQKTS) [compound 492] | 50
493 (QISRGDTYYVMNKS) [compound 493] | 50
494 (HIPGEEPSDGVRSY) [compound 494] | 49
495 (HLSVAEPYYAVRNS) [compound 495] | 49

Substance | Count
496 (QLQWQKSNWVGKIT) [compound 496] | 49
497 (EIPWEGTYRLVKHS) [compound 497] | 48
498 (HVPQKEPYYVVKTF) [compound 498] | 48
499 (QFPLFTTFYNVEES) [compound 499] | 47
500 (QFPWETSYYIVKNS) [compound 500] | 47
501 (QLAGGDPYVLPKLS) [compound 501] | 47
502 (DVASGEQSYIVVKY) [compound 502] | 46
503 (HVWLEDTISAEKKS) [compound 503] | 46
504 (QVQWDGASSIVQKT) [compound 504] | 46
505 (HFRGPEPYKFVENP) [compound 505] | 45
506 (HVPWEGPEYIVTQS) [compound 506] | 45
507 (QFPRHDPNEVVHKS) [compound 507] | 45
508 (QIPSEEPNYILKSS) [compound 508] | 45
509 (QRPGDEPSYFVKNS) [compound 509] | 45
510 (ELTMEQPSYVGNVS) [compound 510] | 44
511 (QLPWHEAFFGVNNG) [compound 511] | 44
512 (QVLEKEPSSNVHKS) [compound 512] | 44
513 (HVPSYAPNYEIKES) [compound 513] | 43
514 (QHLGEEPSYSGEYA) [compound 514] | 43
515 (SISSKDPYALVKYS) [compound 515] | 43
516 (QFPWDEPNYVVKNF) [compound 516] | 42
517 (QLPFNEPYYSQQVS) [compound 517] | 42
518 (HLSMEAPYYGVKEY) [compound 518] | 41

Substance | Count
519 (HVLGEQPYSVVKTS) [compound 519] | 41
520 (HVSWEEPRYIVKDS) [compound 520] | 41
521 (QLPWEGPYYIVKKS) [compound 521] | 41
522 (QTPAEKPYYVVKKY) [compound 522] | 41
523 (HVPSQEWYYDLHKS) [compound 523] | 40
524 (QFPWHKQFYVGKSS) [compound 524] | 40
525 (DFQIVGPSYVGKNS) [compound 525] | 39
526 (HLPSEKPWYDLDGS) [compound 526] | 39
527 (HVSWSTSKYVVNHS) [compound 527] | 39
528 (QISWEDPDYGVRKS) [compound 528] | 39
529 (QVPCEQQSCVVKNS) [compound 529] | 39
530 (LFTGQQSYYEVQES) [compound 530] | 38
531 (LVSPTGPIYVMNKS) [compound 531] | 38
532 (QFASEEPYHVMKKP) [compound 532] | 38
533 (QFSRADSQYLVKNS) [compound 533] | 38
534 (QIPLQDPYHVVEKS) [compound 534] | 38
535 (QLLWGESYSIVKNY) [compound 535] | 38
536 (QLPSQTQNYYDTNA) [compound 536] | 38
537 (QLRSEDTYYTMQSY) [compound 537] | 38
538 (SVAGQQHYYVSTKP) [compound 538] | 38
539 (HLPCKKSFYACKKH) [compound 539] | 37
540 (HVRFAEPYYAGKTS) [compound 540] | 37
541 (LLTGAEPYYLGKRS) [compound 541] | 37

The substances below were run on excised human nerve tissue (assay: Phage display selection on excised human nerve tissue (Nerve2, Nerve3), NextGen sequence counts). Details: unique sequence count (relative enrichment); Nerve3 only.
Type: binding
Procedure, shortened: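 Randomized parent-peptide m13 phage libraries (about 50% mutation per residue) selected on washed excised human nerve tissue over multiple rounds, washing nerve pellet with PBS. NextGen sequencing of pools after rounds 2, 3 and 4; translated peptides counted by frequency, with counts 6 or greater retained.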

Substance | Count
441 (QFALKGLNGDFQKS) [compound 441] | 83
442 (QFPSAETYRIVKKF) [compound 442] | 83
443 (QLTWELGYHAFVKP) [compound 443] | 83
444 (QLLRNLSYDGAKYS) [compound 444] | 82
445 (QLRVKLQYDVIANN) [compound 445] | 81
446 (QVPAREPNHIVKKS) [compound 446] | 80
447 (SAREQGTFYFVNNS) [compound 447] | 80
448 (LFPKYAPHESVKMS) [compound 448] | 78
449 (QVPGNELYFVLKQY) [compound 449] | 77
